Literature values in patent US12404360B2, “Method of preparing graft copolymer” (LG CHEM, LTD., priority 2019, dated 2025).

How the values were obtained:
[1] = not given; remark: listed apart in the source

Row | Compound | Solubility in water at 20° C. | 10-hour half-life decomposition temperature in toluene [1] | 10-hour half-life decomposition temperature in methanol ([1]; in methanol) | 10-hour half-life decomposition temperature in water [1]
1 | CC(C)(C#N)/N=N/C(C)(C)C#N [AIBN] | < 0.1 g/100 g | 65 °C |  | 
2 | CC(C)(/N=N/C(C)(C)C1=NCCN1)C1=NCCN1 [VA-061] | 0.5 g/100 g |  | 61 °C | 
3 | CC(C)(/N=N/C(C)(C)C(=N)NCCC(=O)O)C(=N)NCCC(=O)O [VA-057] | 14 g/100 g |  |  | 57 °C
4 | CC(C)(/N=N/C(C)(C)C1=NCCN1)C1=NCCN1 [VA-044] | 35.2 g/100 g |  |  | 44 °C
5 | CC(C)CC(C)(C#N)/N=N/C(C)(C#N)CC(C)C (stereo not drawn) [Example V-65] | < 0.1 g/100 g | 51 °C |  | 
6 | CC(C)(/N=N/C(C)(C)C(=O)NCCO)C(=O)NCCO [VA-086] | 2.4 g/100 g |  |  | 86 °C
7 | CC(C)(/N=N/C(C)(C)C(=N)N)C(=N)N [VA-050] |  |  |  | 56 °C
8 | CC(C#N)(CCC(=O)O)/N=N/C(C)(C#N)CCC(=O)O (stereo not drawn) [VA-501] | 0.1 g/100 g |  |  | 69 °C
